Source: patent US6358885B1, “Substituted phenylheterocyclic herbicides” (Mississippi State University, priority 1992, dated 2002)

What was measured:
Test in all cases: Test B preemergence/postemergence greenhouse plant response rating 0 to 10
Conditions in all cases: 0 to 10 scale
barley = format: in vivo, Hordeum vulgare
How it was run: (§1)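 Postemergence treatment of plants two to eighteen cm tall ran alongside preemergence treatment of planted seed, each using compound in a non-phytotoxic solvent.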

barnyardgrass = format: in vivo, Echinochloa crus-galli
How it was run: as §1

bedstraw = format: in vivo, Galium aparine
How it was run: as §1

blackgrass = format: in vivo, Alopecurus myosuroides
How it was run: as §1

cheatgrass = format: in vivo, Bromus secalinus
How it was run: as §1

chickweed = format: in vivo, Stellaria media
How it was run: as §1

cocklebur = format: in vivo, Xanthium pensylvanicum
How it was run: as §1

corn = format: in vivo, Zea mays
How it was run: as §1

cotton = format: in vivo, Gossypium hirsutum
How it was run: as §1

crabgrass = format: in vivo, Digitaria spp.
How it was run: as §1

giant foxtail = format: in vivo, Setaria faberii
How it was run: as §1

lambsquarters = format: in vivo, Chenopodium album
How it was run: as §1

morningglory = format: in vivo, Ipomoea hederacea
How it was run: as §1

rape = format: in vivo, Brassica napus
How it was run: as §1

rice = format: in vivo, Oryza sativa
How it was run: as §1

sorghum = format: in vivo, Sorghum bicolor
How it was run: as §1

soybean = format: in vivo, Glycine max
How it was run: as §1

sugar beet = format: in vivo, Beta vulgaris
How it was run: as §1

velvetleaf = format: in vivo, Abutilon theophrasti
How it was run: as §1

wheat = format: in vivo, Triticum aestivum
How it was run: as §1

wild buckwheat = format: in vivo, Polygonum convolvulus
How it was run: as §1

wild oat = format: in vivo, Avena fatua
How it was run: as §1

purple nutsedge = format: in vivo, Cyperus rotundus
How it was run: as §1

C=CCOc1cc(-c2nn3c(c2Br)CCCC3)c(F)cc1Cl [Compound 37]
Plant response rating, Barley (barley; POSTEMERGENCE, Rate 50 g/ha): 4
Plant response rating, Barley (barley; POSTEMERGENCE, Rate 200 g/ha): 6
Plant response rating, Barley (barley; PREEMERGENCE, Rate 50 g/ha): 0
Plant response rating, Barley (barley; Rate 200 g/ha, PREEMERGENCE): 0
Plant response rating, Barnyardgrass (barnyardgrass; POSTEMERGENCE, Rate 50 g/ha): 5
Plant response rating, Barnyardgrass (barnyardgrass; POSTEMERGENCE, Rate 200 g/ha): 7
Plant response rating, Barnyardgrass (barnyardgrass; PREEMERGENCE, Rate 50 g/ha): 0
Plant response rating, Barnyardgrass (barnyardgrass; Rate 200 g/ha, PREEMERGENCE): 4
Plant response rating, Bedstraw (bedstraw; POSTEMERGENCE, Rate 50 g/ha): 7
Plant response rating, Bedstraw (bedstraw; POSTEMERGENCE, Rate 200 g/ha): 10
Plant response rating, Bedstraw (bedstraw; Rate 200 g/ha, PREEMERGENCE): 8
Plant response rating, Blackgrass (blackgrass; POSTEMERGENCE, Rate 50 g/ha): 4
Plant response rating, Blackgrass (blackgrass; POSTEMERGENCE, Rate 200 g/ha): 7
Plant response rating, Blackgrass (blackgrass; PREEMERGENCE, Rate 50 g/ha): 0
Plant response rating, Blackgrass (blackgrass; Rate 200 g/ha, PREEMERGENCE): 6
Plant response rating, Cheatgrass (cheatgrass; POSTEMERGENCE, Rate 50 g/ha): 4
Plant response rating, Cheatgrass (cheatgrass; POSTEMERGENCE, Rate 200 g/ha): 7
Plant response rating, Cheatgrass (cheatgrass; PREEMERGENCE, Rate 50 g/ha): 5
Plant response rating, Cheatgrass (cheatgrass; Rate 200 g/ha, PREEMERGENCE): 6
Plant response rating, Chickweed (chickweed; POSTEMERGENCE, Rate 50 g/ha): 5
Plant response rating, Chickweed (chickweed; POSTEMERGENCE, Rate 200 g/ha): 10
Plant response rating, Chickweed (chickweed; Rate 200 g/ha, PREEMERGENCE): 9
Plant response rating, Cocklebur (cocklebur; POSTEMERGENCE, Rate 50 g/ha): 7
Plant response rating, Cocklebur (cocklebur; POSTEMERGENCE, Rate 200 g/ha): 10
Plant response rating, Cocklebur (cocklebur; PREEMERGENCE, Rate 50 g/ha): 0
Plant response rating, Cocklebur (cocklebur; Rate 200 g/ha, PREEMERGENCE): 0
Plant response rating, Corn (corn; POSTEMERGENCE, Rate 50 g/ha): 6
Plant response rating, Corn (corn; POSTEMERGENCE, Rate 200 g/ha): 8
Plant response rating, Corn (corn; PREEMERGENCE, Rate 50 g/ha): 0
Plant response rating, Corn (corn; Rate 200 g/ha, PREEMERGENCE): 3
Plant response rating, Cotton (cotton; POSTEMERGENCE, Rate 50 g/ha): 10
Plant response rating, Cotton (cotton; POSTEMERGENCE, Rate 200 g/ha): 10
Plant response rating, Cotton (cotton; PREEMERGENCE, Rate 50 g/ha): 0
Plant response rating, Cotton (cotton; Rate 200 g/ha, PREEMERGENCE): 7
Plant response rating, Crabgrass (crabgrass; POSTEMERGENCE, Rate 50 g/ha): 4
Plant response rating, Crabgrass (crabgrass; POSTEMERGENCE, Rate 200 g/ha): 5
Plant response rating, Crabgrass (crabgrass; PREEMERGENCE, Rate 50 g/ha): 0
Plant response rating, Crabgrass (crabgrass; Rate 200 g/ha, PREEMERGENCE): 7
Plant response rating, Giant foxtail (giant foxtail; POSTEMERGENCE, Rate 50 g/ha): 5
Plant response rating, Giant foxtail (giant foxtail; PREEMERGENCE, Rate 50 g/ha): 2
Plant response rating, Giant foxtail (giant foxtail; Rate 200 g/ha, POSTEMERGENCE): 6
Plant response rating, Giant foxtail (giant foxtail; Rate 200 g/ha, PREEMERGENCE): 5
Plant response rating, Lambsquarter (lambsquarters; POSTEMERGENCE, Rate 50 g/ha): 9
Plant response rating, Lambsquarter (lambsquarters; PREEMERGENCE, Rate 50 g/ha): 10
Plant response rating, Lambsquarter (lambsquarters; Rate 200 g/ha, POSTEMERGENCE): 10
Plant response rating, Lambsquarter (lambsquarters; Rate 200 g/ha, PREEMERGENCE): 10
Plant response rating, Morningglory (morningglory; POSTEMERGENCE, Rate 50 g/ha): 7
Plant response rating, Morningglory (morningglory; PREEMERGENCE, Rate 50 g/ha): 0
Plant response rating, Morningglory (morningglory; Rate 200 g/ha, POSTEMERGENCE): 8
Plant response rating, Morningglory (morningglory; Rate 200 g/ha, PREEMERGENCE): 1
Plant response rating, Rape (rape; POSTEMERGENCE, Rate 50 g/ha): 9
Plant response rating, Rape (rape; Rate 200 g/ha, POSTEMERGENCE): 10
Plant response rating, Rape (rape; Rate 200 g/ha, PREEMERGENCE): 6
Plant response rating, Rice (rice; POSTEMERGENCE, Rate 50 g/ha): 5
Plant response rating, Rice (rice; PREEMERGENCE, Rate 50 g/ha): 0
Plant response rating, Rice (rice; Rate 200 g/ha, POSTEMERGENCE): 6
Plant response rating, Rice (rice; Rate 200 g/ha, PREEMERGENCE): 0
Plant response rating, Sorghum (sorghum; POSTEMERGENCE, Rate 50 g/ha): 5
Plant response rating, Sorghum (sorghum; PREEMERGENCE, Rate 50 g/ha): 0
Plant response rating, Sorghum (sorghum; Rate 200 g/ha, POSTEMERGENCE): 6
Plant response rating, Sorghum (sorghum; Rate 200 g/ha, PREEMERGENCE): 1
Plant response rating, Soybean (soybean; POSTEMERGENCE, Rate 50 g/ha): 5
Plant response rating, Soybean (soybean; PREEMERGENCE, Rate 50 g/ha): 0
Plant response rating, Soybean (soybean; Rate 200 g/ha, POSTEMERGENCE): 6
Plant response rating, Soybean (soybean; Rate 200 g/ha, PREEMERGENCE): 4
Plant response rating, Sugar beet (sugar beet; POSTEMERGENCE, Rate 50 g/ha): 10
Plant response rating, Sugar beet (sugar beet; PREEMERGENCE, Rate 50 g/ha): 9
Plant response rating, Sugar beet (sugar beet; Rate 200 g/ha, POSTEMERGENCE): 10
Plant response rating, Sugar beet (sugar beet; Rate 200 g/ha, PREEMERGENCE): 9
Plant response rating, Velvetleaf (velvetleaf; POSTEMERGENCE, Rate 50 g/ha): 10
Plant response rating, Velvetleaf (velvetleaf; PREEMERGENCE, Rate 50 g/ha): 1
Plant response rating, Velvetleaf (velvetleaf; Rate 200 g/ha, POSTEMERGENCE): 10
Plant response rating, Velvetleaf (velvetleaf; Rate 200 g/ha, PREEMERGENCE): 9
Plant response rating, Wheat (wheat; POSTEMERGENCE, Rate 50 g/ha): 4
Plant response rating, Wheat (wheat; PREEMERGENCE, Rate 50 g/ha): 0
Plant response rating, Wheat (wheat; Rate 200 g/ha, POSTEMERGENCE): 5
Plant response rating, Wheat (wheat; Rate 200 g/ha, PREEMERGENCE): 3
Plant response rating, Wild buckwheat (wild buckwheat; POSTEMERGENCE, Rate 50 g/ha): 9
Plant response rating, Wild buckwheat (wild buckwheat; PREEMERGENCE, Rate 50 g/ha): 9
Plant response rating, Wild buckwheat (wild buckwheat; Rate 200 g/ha, POSTEMERGENCE): 10
Plant response rating, Wild buckwheat (wild buckwheat; Rate 200 g/ha, PREEMERGENCE): 10
Plant response rating, Wild oat (wild oat; POSTEMERGENCE, Rate 50 g/ha): 4
Plant response rating, Wild oat (wild oat; PREEMERGENCE, Rate 50 g/ha): 2
Plant response rating, Wild oat (wild oat; Rate 200 g/ha, POSTEMERGENCE): 6
Plant response rating, Nutsedge (purple nutsedge; POSTEMERGENCE, Rate 50 g/ha): 2
Plant response rating, Nutsedge (purple nutsedge; PREEMERGENCE, Rate 50 g/ha): 0
Plant response rating, Nutsedge (purple nutsedge; Rate 200 g/ha, POSTEMERGENCE): 4
Plant response rating, Nutsedge (purple nutsedge; Rate 200 g/ha, PREEMERGENCE): 0
